Compound: Nc1nc2[nH]cc(CCc3ccc(C(=O)N[C@@H](CCC(=O)O)C(=O)O)cc3)c2c(=O)[nH]1 [Pemetrexed]
Test: relative viability (nuclei count vs DMSO), 5 days (fraction); higher = more cells survive
Method in brief: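 After an overnight hold at 37 °C, lung cancer cell lines in 1536-well plates were pinned with five library-drug doses (not always all listed), each √10 from the next, on vehicle-anchored plates. The cells stayed 5 days without fresh medium, then a one-step fix, permeabilisation and Hoechst stain preceded 4× imaging and MetaXpress nuclear counts. A plate passed only with control CV under 25% and at least one doubling. Viability is the median, over plates, of treated-well nuclei relative to vehicle-well nuclei.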

Cell Line | relative viability (0.002 µM) | relative viability (0.006325 µM) | relative viability (0.02 µM) | relative viability (0.06325 µM) | relative viability (0.2 µM) | relative viability (0.2 µM, anchor plate)
201T | 1.01 | 0.998 | 1.04 | 0.996 | 0.91 | 0.323
A549 | 0.938 | 0.948 | 1.09 | 0.973 | 1.01 | 
A-427 | 0.94 | 1.05 | 1.07 | 0.992 | 0.939 | 0.98
ABC-1 | 0.911 | 1.02 | 1.22 | 0.976 | 0.822 | 
BEN | 0.964 | 1 | 1.06 | 0.947 | 0.769 | 0.829
CAL-12T | 0.936 | 0.938 | 1.16 | 0.967 | 0.863 | 1.19
COR-L23 | 0.998 | 0.979 | 1.04 | 0.375 | 0.211 | 0.2
COR-L 105 | 0.947 | 0.896 | 1.14 | 0.883 | 0.978 | 1.12
Calu-6 | 0.92 | 0.96 | 1.1 | 1 | 0.886 | 
ChaGo-K-1 | 1.05 | 0.942 | 0.98 | 0.418 | 0.312 | 0.261
EBC-1 | 0.951 | 0.951 | 1.09 | 1.01 | 0.735 | 
EKVX | 0.854 | 0.984 | 1.03 | 0.995 | 0.734 | 0.404
EMC-BAC-2 | 0.868 | 1.04 | 1.12 | 0.966 | 0.782 | 0.444
EPLC-272H | 0.888 | 0.892 | 1.1 | 0.935 | 0.798 | 0.313
H3255 | 0.819 | 1.03 | 0.986 | 1.07 | 0.827 | 0.587
HARA | 0.944 | 1.05 | 1.12 | 0.904 | 0.225 | 0.241
HCC-15 | 0.823 | 0.948 | 1.09 | 0.978 | 0.402 | 0.227
HCC-44 | 0.839 | 0.989 | 1.06 | 0.995 | 0.796 | 0.647
HCC-78 | 0.674 | 0.98 | 0.877 | 0.43 |  | 
HCC-366 | 0.964 | 0.985 | 1.07 | 0.991 |  | 
HCC-827 | 0.908 | 1.09 | 1.05 | 1.02 |  | 
HOP-62 | 0.864 | 0.949 | 1.08 | 0.964 |  | 
IA-LM | 0.838 | 0.937 | 0.959 | 0.988 | 0.865 | 
LC-2-ad | 0.815 | 0.974 | 0.967 | 0.296 | 0.3 | 0.285
LCLC-97TM1 | 0.913 | 0.891 | 0.93 | 1.02 |  | 
LCLC-103H | 0.89 | 1.01 | 1.01 | 1.02 | 0.935 | 0.477
LK-2 | 0.854 | 0.925 | 1.06 | 0.868 | 0.685 | 0.284

Cell Line | relative viability (0.002 µM) | relative viability (0.006325 µM) | relative viability (0.02 µM) | relative viability (0.06325 µM) | relative viability (0.2 µM) | relative viability (0.2 µM, anchor plate)
LOU-NH91 | 0.948 | 1 | 1.06 | 0.678 | 0.521 | 0.388
LU99A | 0.869 | 0.92 | 1.07 | 1.08 |  | 
LXF-289 | 0.938 | 0.999 | 1.04 | 1.02 | 0.939 | 0.905
NCI-H23 | 0.893 | 0.987 | 1.18 | 0.91 | 0.905 | 0.714
NCI-H322M | 1.09 | 0.934 | 0.98 | 0.983 | 0.741 | 0.634
NCI-H358 | 0.958 | 0.925 | 0.864 | 0.293 | 0.24 | 0.176
NCI-H441 | 0.917 | 1.01 | 1.1 | 0.688 | 0.452 | 0.255
NCI-H460 | 0.878 | 0.969 | 1.03 | 0.745 | 0.116 | 0.065
NCI-H520 | 0.938 | 0.969 | 0.95 | 0.936 | 0.975 | 0.693
NCI-H522 | 1.18 | 0.999 | 0.916 | 0.868 | 1.03 | 1.03
NCI-H596 | 0.996 | 0.909 | 0.942 | 0.732 | 0.436 | 0.499
NCI-H647 | 0.734 | 1.01 | 1.04 | 0.883 | 0.289 | 0.182
NCI-H650 | 0.851 | 0.905 | 0.987 | 0.857 | 1.02 | 0.925
NCI-H661 | 1 | 0.975 | 1.02 | 0.977 | 0.967 | 0.923
NCI-H727 | 0.844 | 0.931 | 0.899 | 0.958 | 0.899 | 
NCI-H838 | 0.99 | 0.917 | 1.08 | 0.869 | 0.359 | 0.257
NCI-H1299 | 1.01 | 0.998 | 1.06 | 0.991 | 0.959 | 
NCI-H1355 | 0.787 | 0.962 | 0.999 | 1.05 | 1 | 1.04
NCI-H1395 | 0.796 | 1.02 | 1.09 | 0.994 | 0.86 | 0.892
NCI-H1437 | 0.741 | 0.974 | 0.998 | 0.704 | 0.493 | 0.319
NCI-H1563 | 0.907 | 0.955 | 0.991 | 1.03 | 1.01 | 0.799
NCI-H1623 | 0.899 | 1.04 | 0.976 | 0.912 | 0.955 | 
NCI-H1648 | 0.992 | 0.924 | 0.888 | 0.783 | 0.931 | 0.77
NCI-H1650 | 0.788 | 0.89 | 1.21 | 0.633 | 0.341 | 0.367
NCI-H1651 | 0.951 | 0.91 | 1.04 | 0.95 | 0.945 | 0.616
NCI-H1666 | 1.05 | 1.02 | 0.999 | 1.02 | 0.796 | 0.834
NCI-H1703 | 0.917 | 0.871 | 1.39 | 1.06 | 0.92 | 

Cell Line | relative viability (0.002 µM) | relative viability (0.006325 µM) | relative viability (0.02 µM) | relative viability (0.06325 µM) | relative viability (0.2 µM) | relative viability (0.2 µM, anchor plate)
NCI-H1734 | 0.997 | 0.923 | 1.11 | 0.964 | 0.676 | 0.433
NCI-H1755 | 0.872 | 0.983 | 1.01 | 0.995 | 0.879 | 0.47
NCI-H1792 | 1.09 | 0.897 | 1 | 0.893 | 0.94 | 0.968
NCI-H1793 | 0.909 | 0.807 | 0.986 | 0.987 | 0.93 | 0.923
NCI-H1915 | 0.95 | 0.976 | 1.12 | 0.982 | 0.98 | 0.507
NCI-H1944 | 0.716 | 0.99 | 1.04 | 0.956 | 0.969 | 0.619
NCI-H1975 | 0.698 | 0.938 | 1.01 | 0.87 | 0.54 | 0.291
NCI-H1993 | 0.866 | 0.995 | 0.962 | 0.896 | 0.734 | 0.592
NCI-H2009 | 0.905 | 0.953 | 1.14 | 0.997 | 0.976 | 1.03
NCI-H2023 | 0.762 | 0.87 | 1.11 | 0.802 | 0.292 | 0.249
NCI-H2085 | 0.947 | 0.979 | 1.08 | 1.03 | 0.98 | 0.921
NCI-H2087 | 0.926 | 0.875 | 1.15 | 1.05 | 0.639 | 0.684
NCI-H2126 | 0.974 | 0.992 | 1.04 | 1 | 0.91 | 0.684
NCI-H2170 | 0.952 | 0.928 | 1.04 | 1.01 |  | 
NCI-H2228 | 0.799 | 0.878 | 1.2 | 0.838 | 0.333 | 0.339
NCI-H2342 | 0.804 | 0.95 | 1.03 | 1.02 | 1.08 | 0.769
NCI-H2347 | 0.931 | 0.965 | 1.14 | 0.9 | 0.655 | 0.42
NCI-H2405 | 0.97 | 0.985 | 1.09 | 0.98 | 0.961 | 1.08
NCI-H3122 | 1.01 | 0.953 | 1.02 | 0.951 | 0.576 | 0.201
PC-3 [JPC-3] | 0.882 | 1.1 | 1.06 | 1.04 | 0.964 | 1.16
PC-14 | 0.975 | 1.01 | 1.08 | 0.602 | 0.142 | 0.136
RERF-LC-KJ | 0.958 | 0.969 | 1.03 | 0.995 | 0.746 | 0.486
SK-LU-1 | 0.944 | 0.979 | 1.05 | 1.12 | 1 | 0.927
SK-MES-1 | 0.979 | 0.932 | 1.07 | 0.976 | 0.934 | 0.94
SW 900 | 0.809 | 0.907 | 0.948 | 0.814 | 0.487 | 0.496
SW 1573 | 1.04 | 0.951 | 1.05 | 0.893 | 0.976 | 0.897
